From patent US5840684A, “Glycopeptide antibiotic derivatives” (Eli Lilly and Company, priority 1995, dated 1998)
In brackets after ≈: the same amount, converted by molar mass.

What was measured:
[1] = tested on: Staphylococcus aureus S13E; assay type: cell-based
Procedure: (§1) The MIC's were determined using a standard broth micro-dilution assay.

[2] = tested on: Staphylococcus aureus SA1199B; assay type: cell-based
Procedure: as §1

[3] = tested on: Entercoccus faecium 180-1; assay: broth micro-dilution MIC; assay type: cell-based
Procedure: as §1

Entercoccus faecium 276 = assay: broth micro-dilution MIC; assay type: cell-based
Procedure: as §1

[4] = tested on: Staphylococcus aureus 446; assay: broth micro-dilution MIC; assay type: cell-based
Procedure: as §1

[5] = tested on: Staphylococcus aureus 489; assay: broth micro-dilution MIC; assay type: cell-based
Procedure: as §1

[6] = tested on: Staphylococcus aureus 491; assay: broth micro-dilution MIC; assay type: cell-based
Procedure: as §1

[7] = tested on: Staphylococcus aureus SA1199A; assay: broth micro-dilution MIC; assay type: cell-based
Procedure: as §1

[8] = tested on: Staphylococcus aureus X400; assay: broth micro-dilution MIC; assay type: cell-based
Procedure: as §1

[9] = tested on: Staphylococcus aureus X778; assay: broth micro-dilution MIC; assay type: cell-based
Procedure: as §1

[10] = tested on: Streptococcus pyogenes C203; assay: broth micro-dilution MIC; assay type: cell-based
Procedure: as §1

Entercoccus faecium 180 = assay: broth micro-dilution MIC; assay type: cell-based; settings: Entercoccus faecium 180
Procedure: (§2) The formula I compounds have in vitro and in vivo activity against Gram-positive pathogenic bacteria. The MIC's were determined using a standard broth micro-dilution assay.

Entercoccus faecium 2041 = assay: broth micro-dilution MIC; assay type: cell-based; settings: Entercoccus faecium 2041
Procedure: as §2

[11] = tested on: Enterococcus gallinarum 245; assay: broth micro-dilution MIC; assay type: cell-based; settings: Enterococcus gallinarum 245
Procedure: as §2

[12] = tested on: Haemophilus influenzae RD; assay: broth micro-dilution MIC; assay type: cell-based; settings: Haemophilus influenzae RD
Procedure: as §2

[13] = tested on: Staphylococcus epidermidis 270; assay: broth micro-dilution MIC; assay type: cell-based
Procedure: as §2

[14] = tested on: Staphylococcus haemolyticus 105; assay: broth micro-dilution MIC; assay type: cell-based
Procedure: as §2

[15] = tested on: Staphylococcus haemolyticus 415; assay: broth micro-dilution MIC; assay type: cell-based
Procedure: as §2

[16] = tested on: Streptococcus pneumoniae P1; assay: broth micro-dilution MIC; assay type: cell-based
Procedure: as §2

[17] = tested on: vancomycin-resistant enterococci; assay: broth micro-dilution, mean geometric MIC; assay type: cell-based, Enterococcus faecium and Enterococcus faecalis; settings: enterococci, 24-hour incubation
[18] = tested on: Staphylococcus aureus 447; assay: broth micro-dilution MIC; assay type: cell-based
Procedure: as §1

[19] = tested on: Staphylococcus aureus SA1199; assay: broth micro-dilution MIC; assay type: cell-based
Procedure: as §1

[20] = tested on: vancomycin-susceptible enterococci; assay: broth micro-dilution, mean geometric MIC; assay type: cell-based, Enterococcus faecium and Enterococcus faecalis; settings: enterococci, 24-hour incubation

SMILES | MIC [1] [µg/mL] | MIC [2] [µg/mL] | MIC [3] [µg/mL] | MIC (Entercoccus faecium 276) [µg/mL] | MIC [4] [µg/mL] | MIC [5] [µg/mL] | MIC [6] [µg/mL] | MIC [7] [µg/mL] | MIC [8] [µg/mL] | MIC [9] [µg/mL] | MIC [10] [µg/mL] | MIC (Entercoccus faecium 180) [µg/mL] | MIC (Entercoccus faecium 2041) [µg/mL] | MIC [11] [µg/mL] | MIC [12] [µg/mL] | MIC [13] [µg/mL] | MIC [14] [µg/mL] | MIC [15] [µg/mL] | MIC [16] [µg/mL] | mean geometric MIC, Vancomycin Resistant Strains [17] [µg/mL] | also measured
CNC(CC(C)C)C(=O)NC1C(=O)NC(CC(N)=O)C(=O)NC2C(=O)NC3C(=O)NC(C(=O)NC(C(=O)O)c4cc(O)cc(O)c4-c4cc3ccc4O)C(OC3CC(C)(N)C(O)C(C)O3)c3ccc(c(Cl)c3)Oc3cc2cc(c3OC2OC(CO)C(O)C(O)C2OC2CC(C)(NCCCCC#Cc3ccccc3)C(O)C(C)O2)Oc2ccc(cc2Cl)C1O (stereo not drawn) [Compound 235] | 0.125 (≈ 0.0715 µM) | 0.5 (≈ 0.286 µM) | ≤ 0.06 | 0.125 (≈ 0.0715 µM) | 0.5 (≈ 0.286 µM) | 0.5 (≈ 0.286 µM) | 0.125 (≈ 0.0715 µM) | ≤ 0.06 | 0.125 (≈ 0.0715 µM) | 0.5 (≈ 0.286 µM) | ≤ 0.06 | 0.5 (≈ 0.286 µM) | ≤ 0.06 | 1 (≈ 0.572 µM) | 8 (≈ 4.57 µM) | 0.5 (≈ 0.286 µM) | 0.5 (≈ 0.286 µM) | 1 (≈ 0.572 µM) | ≤ 0.06 | 2.4 | –
CNC(CC(C)C)C(=O)NC1C(=O)NC(CC(N)=O)C(=O)NC2C(=O)NC3C(=O)NC(C(=O)NC(C(=O)O)c4cc(O)cc(O)c4-c4cc3ccc4O)C(OC3CC(C)(N)C(O)C(C)O3)c3ccc(c(Cl)c3)Oc3cc2cc(c3OC2OC(CO)C(O)C(O)C2OC2CC(C)(NCc3ccc(C#Cc4ccccc4)cc3)C(O)C(C)O2)Oc2ccc(cc2Cl)C1O (stereo not drawn) [Compound 79] | 4 (≈ 2.24 µM) | 1 (≈ 0.561 µM) | ≤ 0.06 | ≤ 0.06 | 2 (≈ 1.12 µM) | 2 (≈ 1.12 µM) | 4 (≈ 2.24 µM) | – | – | 2 (≈ 1.12 µM) | ≤ 0.06 | ≤ 0.06 | ≤ 0.06 | ≤ 0.06 | 16 (≈ 8.98 µM) | 0.5 (≈ 0.28 µM) | 4 (≈ 2.24 µM) | 4 (≈ 2.24 µM) | ≤ 0.06 | 0.84 | MIC [18]: 2 µg/mL (≈ 1.12 µM); MIC [19]: 1 µg/mL (≈ 0.561 µM); mean geometric MIC, Vancomycin Sensitive Strains [20]: 0.042 µg/mL
CNC(CC(C)C)C(=O)NC1C(=O)NC(CC(N)=O)C(=O)NC2C(=O)NC3C(=O)NC(C(=O)NC(C(=O)O)c4cc(O)cc(O)c4-c4cc3ccc4O)C(OC3CC(C)(N)C(O)C(C)O3)c3ccc(c(Cl)c3)Oc3cc2cc(c3OC2OC(CO)C(O)C(O)C2OC2CC(C)(NCCCCC3CCCCC3)C(O)C(C)O2)Oc2ccc(cc2Cl)C1O (stereo not drawn) [Compound 205] | 0.5 (≈ 0.289 µM) | 0.5 (≈ 0.289 µM) | ≤ 0.06 | 0.5 (≈ 0.289 µM) | 2 (≈ 1.16 µM) | 0.5 (≈ 0.289 µM) | 0.5 (≈ 0.289 µM) | ≤ 0.06 | 0.5 (≈ 0.289 µM) | 0.5 (≈ 0.289 µM) | ≤ 0.06 | 0.5 (≈ 0.289 µM) | 0.25 (≈ 0.144 µM) | 1 (≈ 0.578 µM) | 16 (≈ 9.24 µM) | – | 1 (≈ 0.578 µM) | 1 (≈ 0.578 µM) | ≤ 0.06 | 1 | MIC [18]: 0.5 µg/mL (≈ 0.289 µM); MIC [19]: 1 µg/mL (≈ 0.578 µM); mean geometric MIC, Vancomycin Sensitive Strains [20]: 0.036 µg/mL
CNC(CC(C)C)C(=O)NC1C(=O)NC(CC(N)=O)C(=O)NC2C(=O)NC3C(=O)NC(C(=O)NC(C(=O)O)c4cc(O)cc(O)c4-c4cc3ccc4O)C(OC3CC(C)(N)C(O)C(C)O3)c3ccc(c(Cl)c3)Oc3cc2cc(c3OC2OC(CO)C(O)C(O)C2OC2CC(C)(NCc3ccc(-c4ccccc4[N+](=O)[O-])c([N+](=O)[O-])c3)C(O)C(C)O2)Oc2ccc(cc2Cl)C1O (stereo not drawn) [Compound 213] | ≤ 0.06 | ≤ 0.06 | ≤ 0.06 | ≤ 0.06 | ≤ 0.06 | ≤ 0.06 | ≤ 0.06 | ≤ 0.06 | ≤ 0.06 | ≤ 0.06 | – | 0.125 (≈ 0.0676 µM) | ≤ 0.06 | 2 (≈ 1.08 µM) | 32 (≈ 17.3 µM) | 0.5 (≈ 0.27 µM) | 0.5 (≈ 0.27 µM) | 2 (≈ 1.08 µM) | ≤ 0.06 | 1.0 | MIC [19]: ≤ 0.06 µg/mL; mean geometric MIC, Vancomycin Sensitive Strains [20]: 0.55 µg/mL
